Literature values, collected in PMC4791286, “Puquitinib mesylate, an inhibitor of phosphatidylinositol 3-kinase p110δ, for treating relapsed or refractory non-Hodgkin's lymphoma” (Oncotarget, 2015).

Experiments:
[1] = tested on: advanced solid tumors and lymphoma; design: method as in PMID 22357447; conditions: cited from earlier work
p110δ = tested on: p110δ; design: method as in PMID 20959606; conditions: cited from earlier work
[2] = tested on: indolent non-Hodgkin lymphoma (iNHL); design: method as in PMID 24615776; conditions: cited from earlier work
MCL = tested on: MCL; design: method as in PMID 24615778; conditions: n = 40; cited from earlier work

SMILES | AST elevations, Grade 2 [1] | AST elevations, Grade 3 [1] | IC50 (p110δ) | Asymptomatic grade 3 or greater serum transaminase elevations ([2]; iNHL, n = 64) | Response rate ([2]; marginal-zone lymphoma subtype) | Asymptomatic grade 3 or greater serum transaminase elevations (MCL)
COc1ccc(-c2ccc3ncc4c(c3c2)n(-c2ccc(N3CCNCC3)c(C(F)(F)F)c2)c(=O)n4C)cn1 [BGT226] | 9 n | 3 n |  |  |  | 
CC[C@H](Nc1ncnc2[nH]cnc12)c1nc2cccc(F)c2c(=O)n1-c1ccccc1 [Idelalisib] |  |  | […] | 25% | 33% | 35%
